One experiment deals with MCF-7. The following applies: cited from earlier work.
For a further experiment, the system named is MDA-MB23 1. The following applies: cited from earlier work.
In experiment [1] the test system is telomerase activity in A431 xenograft. The experiment can be described thus: Telomerase activity (TRAPeze ELISA) in A431 xenograft tumour material. The format is in vivo, nu/nu mice. The protocol: (§1) Human tumour cells KB (CCL-17) and A43 1 (CRL-1555) were obtained from ATCC and cultured in DMEM medium supplemented with 10% fetal calf serum, 10 mM HEPES, 50 μmol/l beta-mercaptoethanol and a standard complement of antibiotics.
(§2) To establish subcutaneous tumours in nu/nu mice (5-6 week old female animals, supplied by Harlan, The Netherlands), cells were trypsinised, washed and suspended in phosphate-buffered physiological solution+10% fetal calf serum at 10^7 cells/ml. 100 μl cell suspension containing 10^6 cells were then injected subcutaneously into the right flank of the mice (one site per mouse). When tumours were well established and had reached diameters of more than 5-9 mm, mice were randomly distributed between treatment and the vehicle control group (7-10 days after cell injection). Test compounds (1 and 5 mg/ml) were dissolved and administered intragastically by gavage needle. Administration was once daily oral dosing in a volume of 10 ml/kg body weight. Tumour diameters were measured three times weekly with a caliper. Volumes (in mm^3) were calculated according to the formula: tumour volume=length*diameter^2*π/6.
(§3) For measuring telomerase activity, the Oncor®, TRAPeze™ Elisa Telomerase Detection Kit was used. Tumour material surgically removed from mice was cleaned and frozen at −70° C. […]
In general terms: An ELISA detects its analyte on a solid surface through an enzyme-linked reagent.

The subject of a further experiment is A431 xenograft. Nature of the experiment: Tumour growth of subcutaneous A431 xenograft. The following applies: for % reduction of tumour growth: A431 xenograft; for tumor growth in vivo: oral administration, nu/nu mice xenografted with A43 1 or KB tumor cells. The format is in vivo, nu/nu mice. The procedure: as §1, §2
For experiment [2], the system named is telomerase activity in KB xenograft. Nature of the experiment: Telomerase activity (TRAPeze ELISA) in KB xenograft tumour material. The format is in vivo, nu/nu mice. The following applies: 50 mg/kg once daily oral. The procedure:
as §1, §2, §3

The next experiment deals with KB xenograft. The experiment can be described thus: Tumour growth of subcutaneous KB xenograft. The format is in vivo, nu/nu mice. The following applies: 50 mg/kg once daily oral. The protocol:
as §1, §2

The test system of another experiment is NB-4. The settings on record: NB-4, differentiation-sensitive clones; cited from earlier work.
The next experiment deals with NTERA-2. The following applies: NTERA-2, differentiation-sensitive clones; cited from earlier work.

Where two headings read alike, the source gives them in different places.

On to `CC/C(=C(\c1ccccc1)c1ccc(OCCN(C)C)cc1)c1ccccc1` [tamoxifen], for which the telomerase activity result with MCF-7 (MCF-7, 10^−8M) is on record as “repressive effect”; in the experiment with MCF-7 (MCF-7, higher (10^−7 and 10^−6M) or lower (10^−9M) concentrations), “no effect”; with MDA-MB23 1 (MDA-MB23 1, 10^−8M), “repressive effect”; with MDA-MB23 1 (MDA-MB23 1, higher (10^−7 and 10^−6M) or lower (10^−9M) concentrations), “no effect”.
Consider `CN1CCC(Nc2ncc3ncnc(Nc4ccc(F)c(Cl)c4)c3n2)CC1` [Inhibitor 1, 4-((3-chloro-4-fluoro-phenyl)amino)-6-(1-methyl-4-piperidinyl-amino)-pyrimido(5,4d)pyrimidine], for which the “% reduction of telomerase activity” value in experiment [1] (50 mg/kg once daily oral) is 100%; in experiment [2] it was 6%. The “% reduction of tumour growth” value came to 79% in the experiment on A431 xenograft (50 mg/kg once daily oral) and 51% in the experiment with KB xenograft. Moreover, the “tumor growth in vivo” value in the experiment with A431 xenograft was “inhibited tumor growth in vivo”.
Turning to `CC1(N)CCN(c2ncc3ncnc(Nc4ccc(F)c(Cl)c4)c3n2)CC1` [Inhibitor 2, 4-((3-chloro-4-fluoro-phenyl)amino)-6-(4-amino-4-methyl-1-piperidinyl)-pyrimido(5,4d)pyrimidine], the “% reduction of telomerase activity” value in experiment [1] (10 mg/kg once daily oral) is recorded as 96%. Also, in the experiment with A431 xenograft (10 mg/kg once daily oral), the “% reduction of tumour growth” value is recorded as 90%. In the experiment with A431 xenograft, the “tumor growth in vivo” value is on record as “inhibited tumor growth in vivo”.
Turning to `CC1=C(/C=C/C(C)=C/C=C/C(C)=C/C(=O)O)C(C)(C)CCC1` [all-trans-retinoic acid], the telomerase activity result in the experiment with NB-4 and in the experiment on NTERA-2 was “decline in telomerase activity” throughout.
On to `CC(=O)NCCCCCCNC(C)=O` [hexamethylene bisacetamide], for which the telomerase activity result in the experiment on NB-4 and in the experiment with NTERA-2 was “decline in telomerase activity” throughout.
